From US20260271987A1, “AEROSOL PRECURSOR COMPOSITION COMPRISING MONOMENTHYL ESTER” (RAI STRATEGIC HOLDINGS, INC., priority 2023, published 2026)

Assay: Thermal analysis (flash pyrolysis and thermogravimetric analysis) of neat menthyl monosuccinate
Format: physicochemical
Conditions: for Compounds volatilized by FP and TGA, Area %: neat menthyl monosuccinate sample, FP in helium, Teq=340° C., 40 seconds, GC/MS, TGA 30 to 340° C. at 20 degrees per minute
Procedure: Flash pyrolysis (FP) and thermogravimetric analysis (TGA) were conducted on a sample of menthyl monosuccinate.
For the FP, a pyroprobe Model 5200 (CDS Analytical, CDS, Oxford, PA 19363, USA) pyrolyzer was used. Heating was performed in helium in flash mode with Teq=340° C. using approximately 0.5 mg of neat monomenthyl succinate. Heating was performed for 40 seconds. GC/MS analysis was performed with separation on a DB-1701 column. For the TG, a Discovery TA 5500 (TA Instruments, New Castle, DE, USA) was used. The temperature range was 30 to 340° C. at a ramp rate of 20 degrees per minute. Neat monomenthyl succinate (2-3 mg) and silica (about 1.5 mg, containing 5% naphthalene) was used as an internal standard.

| Structure (SMILES) | major decomposition product formed from menthyl monosuccinate (FP and TGA, up to 340° C.) [%] | Compounds volatilized by FP and TGA, Area % [%] | portion of the menthyl monosuccinate volatilized without decomposition (FP and TGA, up to 340° C.) [%] |
| --- | --- | --- | --- |
| CC(C)[C@@H]1CC[C@@H](C)C[C@H]1O [Menthol, (1R,2S,5R)-5-Methyl-2-(propan-2-yl)cyclohexan-1-ol] | 16.5 | 16.5 |  |
| CC(C)[C@@H]1CC[C@@H](C)C[C@H]1OC(=O)CCC(=O)O [Menthyl monosuccinate] |  | 70 | 70 |
